Assay results published in paper PMC9065678, “BI 1015550 is a PDE4B Inhibitor and a Clinical Drug Candidate for the Oral Treatment of Idiopathic Pulmonary Fibrosis” (Frontiers in Pharmacology, 2022).

Assays:
FN mRNA expression = assay: TGF-β-induced FN mRNA expression in IPF lung fibroblasts (Taqman); type: cell-based, human; details: IPF-LF, TGF-β 4 ng/mL, 48 h
Procedure: Fibroblasts from donors with IPF (IPF-LF) (Asterand, Detroit, MI, United States) were grown in fibroblast basal medium (CC-3131, Lonza Walkersville, Inc., Walkersville, MD, United States) supplemented with FGM-2 SingleQuot Kit Supplements and Growth Factors (CC-4126, Lonza). Cells were grown in a humidified incubator at 37°C and 5% CO2. All assays were performed at passage 7 or 8. For assay set-up, cells were seeded in fibroblast growth medium plus supplements in assay-relevant densities. For TGF-β-stimulated assays, cells were seeded at 4,500 cells per well in 96-well plates. Proliferation assays were performed in 96-well plates at an initial seeding cell density on day 0 of 2,000 cells per well. After 24-h, the cell culture medium was changed to starvation medium (fibroblast basal medium without supplements). […]
For determination of Col1A1, Col3A1, and FN mRNA expression, IPF-LF cells were stimulated with TGF-β (4 ng/mL) for 48 h. […] Quantitative real-time polymerase chain reactions were set up using the TaqMan™ Fast Advanced Master Mix (Applied Biosystems, Carlsbad, CA, United States) and species-specific gene expression assays: Col1A1 #Hs00164004_m1 FAM, Col3A1 #Hs0094309_m1 FAM, FN #Hs01549976_m1 FAM, 18S #4310893E. […] Fold-change of gene expression was calculated by the Viia7 software (regulation based upon housekeeper).

PDE1C = target: T1, PDE1C (Homo sapiens, UniProt Q14123); assay: Recombinant PDE activity, scintillation proximity assay: PDE1C; type: biochemical
T1 construct: the full-length open reading frames of PDE1C; made in house; host or cells: SF9 insect cells (baculovirus, Bac-To-Bac, pFastbac)
Excerpt: For the preparation of human recombinant PDEs of interest, the Bac-To-Bac baculoviral expression system from Invitrogen (Carlsbad, CA, United States) was used according to the instruction manual. In short, the full-length open reading frames of PDE1C (National Center for Biotechnology Information Gene-Ref-Seq identifier NG_051183), PDE3A (NG_030033), PDE4A (NG_029594, AA 156–886), PDE4C (NG_029629), PDE7A (NG_029614), and PDE9A (NG_047067) were cloned into the plasmid vector pFastbac. For PDE4B and PDE4D, active site fragments were used (PDE4B NG_029038: AA 152–484, PDE4D NG_027957, AA 79–438). The plasmids were transformed into DH10Bac bacteria, SF9 insect cells were transfected with the bacmid DNA, and the resulting baculoviruses were stored and used for further rounds of infections. […] The protein content was measured and an equal volume of 87% (v/v) glycerol was added prior to freezing at −20°C. […] The reaction was stopped by addition of 50 µL of yttrium silicate scintillation proximity assay beads (17.8 mg/mL, 18 mM zinc sulfate in H2O) and the amount of produced [^3H]AMP/[^3H]GMP associated was determined using a Wallac Microbeta scintillation counter. […]

PDE4C = target: T2, PDE4C (Homo sapiens, UniProt Q08493); assay: Recombinant PDE activity, scintillation proximity assay: PDE4C; type: biochemical; details: substrate [3H]cAMP, means from n independent experiments, read-out: IC50 PDE4C2
T2 construct: made in house; host or cells: SF9 insect cells (baculovirus, Bac-To-Bac, pFastbac)
Procedure: For the preparation of human recombinant PDEs of interest, the Bac-To-Bac baculoviral expression system from Invitrogen (Carlsbad, CA, United States) was used according to the instruction manual. […] The plasmids were transformed into DH10Bac bacteria, SF9 insect cells were transfected with the bacmid DNA, and the resulting baculoviruses were stored and used for further rounds of infections. For protein production, SF9 cells were infected until a cytopathic effect was visible (after about 72 h), the SF9 cells were harvested and broken up by 3 freeze/thaw cycles, and by shearing 10 times through a 0.1 mm cannula using a syringe. […] The Phosphodiesterase Scintillation Proximity Assays (TRKQ7090 for [^3H]cAMP, GE Healthcare Europe GmbH, Chalfont St Giles, United Kingdom, and TRKQ7100 for [^3H]cGMP, Perkin Elmer, Waltham, MA, United States) were performed essentially according to the instruction manual. […] Assay solutions containing recombinant baculoviral-expressed PDE (to give an activity of 5.000–20.000 cpm corresponding to 5–20% of total activity added), 50 mmol/L Tris/HCl pH 7.5, 8.3 mmol/L MgCl2, 1.7 mmol/L EGTA, and 10 µL radiolabeled substrate (0.05 µCi in H2O) were incubated for 1 h at 30°C (final volume 100 μL).

PDE5 = target: T3, PDE5 (Homo sapiens, UniProt O76074); assay: PDE5 inhibition screen at Eurofins Cerep; type: biochemical; details: screened at Eurofins Cerep
T3 construct: Eurofins Cerep

T1 sequence (Q14123 whole entry): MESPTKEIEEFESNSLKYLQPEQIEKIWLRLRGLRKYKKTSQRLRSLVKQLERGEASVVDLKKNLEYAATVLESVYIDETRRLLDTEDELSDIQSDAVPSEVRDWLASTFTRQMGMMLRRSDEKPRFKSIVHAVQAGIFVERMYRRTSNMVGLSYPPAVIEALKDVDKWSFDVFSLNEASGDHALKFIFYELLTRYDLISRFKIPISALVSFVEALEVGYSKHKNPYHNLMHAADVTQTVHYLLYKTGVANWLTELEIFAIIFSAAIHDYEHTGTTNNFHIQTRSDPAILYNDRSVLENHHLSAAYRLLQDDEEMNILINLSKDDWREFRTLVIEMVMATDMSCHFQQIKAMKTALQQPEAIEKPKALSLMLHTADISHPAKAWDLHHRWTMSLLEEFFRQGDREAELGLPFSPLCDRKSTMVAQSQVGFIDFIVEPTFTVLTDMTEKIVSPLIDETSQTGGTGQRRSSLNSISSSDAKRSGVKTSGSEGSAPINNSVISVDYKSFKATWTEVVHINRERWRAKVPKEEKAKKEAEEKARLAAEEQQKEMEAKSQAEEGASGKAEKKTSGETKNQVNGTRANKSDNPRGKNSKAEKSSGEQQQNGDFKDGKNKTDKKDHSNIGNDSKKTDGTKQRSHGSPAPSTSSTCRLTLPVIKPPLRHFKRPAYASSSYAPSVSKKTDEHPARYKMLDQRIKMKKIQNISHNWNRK
T2 sequence (Q08493 107-712): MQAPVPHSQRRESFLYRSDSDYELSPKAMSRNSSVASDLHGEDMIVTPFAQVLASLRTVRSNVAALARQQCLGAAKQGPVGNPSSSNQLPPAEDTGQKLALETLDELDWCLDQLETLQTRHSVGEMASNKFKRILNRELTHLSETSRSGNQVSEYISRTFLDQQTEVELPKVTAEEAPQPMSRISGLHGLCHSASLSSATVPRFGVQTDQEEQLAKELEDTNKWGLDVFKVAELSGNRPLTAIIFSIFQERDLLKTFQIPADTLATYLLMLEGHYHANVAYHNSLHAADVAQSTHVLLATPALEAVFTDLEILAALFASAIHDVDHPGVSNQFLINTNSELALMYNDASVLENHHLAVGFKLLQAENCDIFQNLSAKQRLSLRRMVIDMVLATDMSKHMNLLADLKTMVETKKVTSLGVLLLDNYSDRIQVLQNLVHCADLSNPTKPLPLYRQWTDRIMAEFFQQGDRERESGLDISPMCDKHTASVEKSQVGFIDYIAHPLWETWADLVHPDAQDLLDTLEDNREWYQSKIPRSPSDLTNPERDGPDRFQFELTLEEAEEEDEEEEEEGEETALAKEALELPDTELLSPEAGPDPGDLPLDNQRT

- IC50 (PDE1C; substrate cAMP): 46 µM
- IC50 (PDE1C; substrate cGMP): 85 µM
- IC50 (PDE4C): 8.7 µM
- Inhibition of human PDE5 (PDE5): did not inhibit
SMILES: [O-][S+]1CCc2nc(N3CCC(c4ncc(Cl)cn4)CC3)nc(NC3(CO)CCC3)c21 (centres unmarked) [BI 1015550]
- IC50 (FN mRNA expression): 0.246 µM
